Data published in US20230085307A1, “PYRIDAZINONE COMPOUND AND HERBICIDE” (NISSAN CHEMICAL CORPORATION, priority 2019, published 2023).

Tests used:
green foxtail [1] = experiment: Test Example 5: herbicidal effect by foliage application, plastic box (Table 20, symbol G); assay type: in vivo, green foxtail (Setaria viridis); settings: foliage application, AAH 320 g/ha
Procedure, shortened: (§1)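 Sow seeds spot-wise in sterilized diluvial soil; cover with ~1.5 cm soil. Grow 14 days in greenhouse, 25° C. to 30° C. Spray foliage with emulsion diluted to predetermined amount. Rate effect after 3 weeks.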

barnyard grass [2] = experiment: Test Example 4: herbicidal effect by soil treatment (Table 19, symbol H); assay type: in vivo, barnyard grass (Echinochloa crus-galli)
Procedure, shortened: (§2)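 Soil-surface application: an emulsion agent diluted with water to the predetermined dose is sprayed uniformly over seeds lying under roughly 1.5 cm of sterilized diluvial soil. Boxes stay in a greenhouse at 25° C. to 30° C. Three weeks later, each species is graded on previously defined criteria.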

southern crabgrass [3] = experiment: Test Example 4: herbicidal effect by soil treatment (Table 19, symbol F); assay type: in vivo, southern crabgrass (Digitaria ciliaris)
Procedure, shortened: as §2

green foxtail [4] = experiment: Test Example 4: herbicidal effect by soil treatment (Table 19, symbol G); assay type: in vivo, green foxtail (Setaria viridis)
Procedure, shortened: as §2

redroot pigweed [5] = experiment: Test Example 4: herbicidal effect by soil treatment (Table 19, symbol N); assay type: in vivo, redroot pigweed (Amaranthus retroflexus)
Procedure, shortened: as §2

chickweed [6] = experiment: Test Example 5: herbicidal effect by foliage application, plastic box (Table 20, symbol P); assay type: in vivo, common chickweed (Stellaria media); settings: foliage application, AAH 320 g/ha
Procedure, shortened: as §1

persian speedwell [7] = experiment: Test Example 4: herbicidal effect by soil treatment (Table 19, symbol R); assay type: in vivo, Persian speedwell (Veronica persica)
Procedure, shortened: as §2

Italian ryegrass [8] = experiment: Test Example 5: herbicidal effect by foliage application, plastic box (Table 20, symbol K); assay type: in vivo, Italian ryegrass (Lolium multiflorum); settings: foliage application, AAH 320 g/ha
Procedure, shortened: as §1

velvetleaf [9] = experiment: Test Example 4: herbicidal effect by soil treatment (Table 19, symbol M); assay type: in vivo, velvetleaf (Abutilon theophrasti)
Procedure, shortened: as §2

wild oat [10] = experiment: Test Example 5: herbicidal effect by foliage application, plastic box (Table 20, symbol I); assay type: in vivo, wild oat (Avena fatua); settings: foliage application, AAH 320 g/ha
Procedure, shortened: as §1

persian speedwell [11] = experiment: Test Example 5: herbicidal effect by foliage application, plastic box (Table 20, symbol R); assay type: in vivo, Persian speedwell (Veronica persica); settings: foliage application, AAH 320 g/ha
Procedure, shortened: as §1

velvetleaf [12] = experiment: Test Example 5: herbicidal effect by foliage application, plastic box (Table 20, symbol M); assay type: in vivo, velvetleaf (Abutilon theophrasti); settings: foliage application, AAH 320 g/ha
Procedure, shortened: as §1

redroot pigweed [13] = experiment: Test Example 5: herbicidal effect by foliage application, plastic box (Table 20, symbol N); assay type: in vivo, redroot pigweed (Amaranthus retroflexus); settings: foliage application, AAH 320 g/ha
Procedure, shortened: as §1

windgrass [14] = experiment: Test Example 4: herbicidal effect by soil treatment (Table 19, symbol L); assay type: in vivo, windgrass (Apera spica-venti)
Procedure, shortened: as §2

wild oat [15] = experiment: Test Example 4: herbicidal effect by soil treatment (Table 19, symbol I); assay type: in vivo, wild oat (Avena fatua)
Procedure, shortened: as §2

lambsquarters [16] = experiment: Test Example 4: herbicidal effect by soil treatment (Table 19, symbol O); assay type: in vivo, lambsquarters (Chenopodium album)
Procedure, shortened: as §2

blackgrass [17] = experiment: Test Example 5: herbicidal effect by foliage application, plastic box (Table 20, symbol J); assay type: in vivo, blackgrass (Alopecurus myosuroides); settings: foliage application, AAH 320 g/ha
Procedure, shortened: as §1

rice flat sedge = experiment: Test Example 3: herbicidal effect by foliage application, Wagner pot (Table 18, symbol E); assay type: in vivo, rice flat sedge (Cyperus iria); settings: 320 g/ha
Procedure, shortened: (§3)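 Plants were sown in alluvial soil held under 0.1–0.5 cm standing water and grown 14 days in a greenhouse at 25–30 °C. An emulsifiable formulation, water-diluted to the set dose, was then sprayed onto the foliage, and effects were scored three weeks later using previously defined criteria.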

lambsquarters [18] = experiment: Test Example 5: herbicidal effect by foliage application, plastic box (Table 20, symbol O); assay type: in vivo, lambsquarters (Chenopodium album); settings: foliage application, AAH 320 g/ha
Procedure, shortened: as §1

Italian ryegrass [19] = experiment: Test Example 4: herbicidal effect by soil treatment (Table 19, symbol K); assay type: in vivo, Italian ryegrass (Lolium multiflorum)
Procedure, shortened: as §2

false cleavers = experiment: Test Example 5: herbicidal effect by foliage application, plastic box (Table 20, symbol Q); assay type: in vivo, false cleavers (Galium spurium); settings: foliage application, AAH 320 g/ha
Procedure, shortened: as §1

Chinese sprangletop = experiment: Test Example 3: herbicidal effect by foliage application, Wagner pot (Table 18, symbol D); assay type: in vivo, chinese sprangletop (Leptochloa chinensis)
Procedure, shortened: as §3

windgrass [20] = experiment: Test Example 5: herbicidal effect by foliage application, plastic box (Table 20, symbol L); assay type: in vivo, windgrass (Apera spica-venti); settings: foliage application, AAH 320 g/ha
Procedure, shortened: as §1

blackgrass [21] = experiment: Test Example 4: herbicidal effect by soil treatment (Table 19, symbol J); assay type: in vivo, blackgrass (Alopecurus myosuroides)
Procedure, shortened: as §2

barnyard grass [22] = experiment: Test Example 3: herbicidal effect by foliage application, Wagner pot (Table 18, symbol H); assay type: in vivo, barnyard grass (Echinochloa crus-galli)
Procedure, shortened: as §3

southern crabgrass [23] = experiment: Test Example 5: herbicidal effect by foliage application, plastic box (Table 20, symbol F); assay type: in vivo, southern crabgrass (Digitaria ciliaris); settings: foliage application, AAH 320 g/ha
Procedure, shortened: as §1

chickweed [24] = experiment: Test Example 4: herbicidal effect by soil treatment (Table 19, symbol P); assay type: in vivo, common chickweed (Stellaria media)
Procedure, shortened: as §2

barnyard grass [25] = experiment: Test Example 5: herbicidal effect by foliage application, plastic box (Table 20, symbol H); assay type: in vivo, barnyard grass (Echinochloa crus-galli); settings: foliage application, AAH 320 g/ha
Procedure, shortened: as §1

[26] = evaluated three weeks after application
[27] = amount of applied herbicide 320 g/ha

COc1nn(C)c(=O)c(-c2c(-c3ccc(F)c(F)c3)sc3ccccc23)c1O [1-172]
G: green foxtail, herbicidal effect (green foxtail [1]; three weeks after application): 4 (Herbicidal rate of 70% or more and less than 90%)
H: barnyard grass, herbicidal effect rating (barnyard grass [2]; AAH 320 g/ha): 0 (Herbicidal rate of 5% or less (almost no effect))
F: southern crabgrass, herbicidal effect rating (southern crabgrass [3]; AAH 320 g/ha): 2 (Herbicidal rate of 20% or more and less than 40%)
G: green foxtail, herbicidal effect rating (green foxtail [4]; AAH 320 g/ha): 5 (Herbicidal rate of 90% or more (almost completely withered))
N: redroot pigweed, herbicidal effect rating (redroot pigweed [5]; AAH 320 g/ha): 5 (Herbicidal rate of 90% or more (almost completely withered))
P: chickweed, herbicidal effect (chickweed [6]; three weeks after application): 5 (Herbicidal rate of 90% or more (almost completely withered))
R: persian speedwell, herbicidal effect rating (persian speedwell [7]; AAH 320 g/ha): 5 (Herbicidal rate of 90% or more (almost completely withered))
K: Italian ryegrass, herbicidal effect (Italian ryegrass [8]; three weeks after application): 3 (Herbicidal rate of 40% or more and less than 70%)
M: velvetleaf, herbicidal effect rating (velvetleaf [9]; AAH 320 g/ha): 1 (Herbicidal rate of 5% or more and less than 20%)
I: wild oat, herbicidal effect (wild oat [10]; three weeks after application): 0 (Herbicidal rate of 5% or less (almost no effect))
R: persian speedwell, herbicidal effect (persian speedwell [11]; three weeks after application): 5 (Herbicidal rate of 90% or more (almost completely withered))
M: velvetleaf, herbicidal effect (velvetleaf [12]; three weeks after application): 3 (Herbicidal rate of 40% or more and less than 70%)
N: redroot pigweed, herbicidal effect (redroot pigweed [13]; three weeks after application): 5 (Herbicidal rate of 90% or more (almost completely withered))
L: windgrass, herbicidal effect rating (windgrass [14]; AAH 320 g/ha): 0 (Herbicidal rate of 5% or less (almost no effect))
I: wild oat, herbicidal effect rating (wild oat [15]; AAH 320 g/ha): 0 (Herbicidal rate of 5% or less (almost no effect))
O: lambsquarters, herbicidal effect rating (lambsquarters [16]; AAH 320 g/ha): 5 (Herbicidal rate of 90% or more (almost completely withered))
J: blackgrass, herbicidal effect (blackgrass [17]; three weeks after application): 0 (Herbicidal rate of 5% or less (almost no effect))
herbicidal effect on E (rice flat sedge), rating 0-5 (rice flat sedge): 5 (Herbicidal rate of 90% or more (almost completely withered))
O: lambsquarters, herbicidal effect (lambsquarters [18]; three weeks after application): 5 (Herbicidal rate of 90% or more (almost completely withered))
K: Italian ryegrass, herbicidal effect rating (Italian ryegrass [19]; AAH 320 g/ha): 1 (Herbicidal rate of 5% or more and less than 20%)
Q: false cleavers, herbicidal effect (false cleavers; three weeks after application): 5 (Herbicidal rate of 90% or more (almost completely withered))
herbicidal effect on D (Chinese sprangletop), rating 0-5 (Chinese sprangletop; 320 g/ha): 0 (Herbicidal rate of 5% or less (almost no effect))
L: windgrass, herbicidal effect (windgrass [20]; three weeks after application): 0 (Herbicidal rate of 5% or less (almost no effect))
J: blackgrass, herbicidal effect rating (blackgrass [21]; AAH 320 g/ha): 0 (Herbicidal rate of 5% or less (almost no effect))
herbicidal effect on H (barnyard grass), rating 0-5 (barnyard grass [22]; 320 g/ha): 0 (Herbicidal rate of 5% or less (almost no effect))
F: southern crabgrass, herbicidal effect (southern crabgrass [23]; three weeks after application): 0 (Herbicidal rate of 5% or less (almost no effect))
P: chickweed, herbicidal effect rating (chickweed [24]; AAH 320 g/ha): 5 (Herbicidal rate of 90% or more (almost completely withered))
H: barnyard grass, herbicidal effect (barnyard grass [25]; three weeks after application): 0 (Herbicidal rate of 5% or less (almost no effect))

Cc1nn(C)c(=O)c(-c2c(-c3ccc(S(=O)(=O)C(C)C)cc3)sc3ccc(F)cc23)c1O [2-259]
G: green foxtail, herbicidal effect (criteria 0-5) (green foxtail [1]; [26]): 3 (Herbicidal rate of 40% or more and less than 70%)
herbicidal effect on H: barnyard grass (barnyard grass [2]; [27]): 0 (Herbicidal rate of 5% or less (almost no effect))
herbicidal effect on F: southern crabgrass (southern crabgrass [3]; [27]): 0 (Herbicidal rate of 5% or less (almost no effect))
herbicidal effect on G: green foxtail (green foxtail [4]; [27]): 1 (Herbicidal rate of 5% or more and less than 20%)
herbicidal effect on N: redroot pigweed (redroot pigweed [5]; [27]): 4 (Herbicidal rate of 70% or more and less than 90%)
P: chickweed, herbicidal effect (criteria 0-5) (chickweed [6]; [26]): 5 (Herbicidal rate of 90% or more (almost completely withered))
herbicidal effect on R: persian speedwell (persian speedwell [7]; [27]): 5 (Herbicidal rate of 90% or more (almost completely withered))
K: Italian ryegrass, herbicidal effect (criteria 0-5) (Italian ryegrass [8]; [26]): 4 (Herbicidal rate of 70% or more and less than 90%)
herbicidal effect on M: velvetleaf (velvetleaf [9]; [27]): 3 (Herbicidal rate of 40% or more and less than 70%)
I: wild oat, herbicidal effect (criteria 0-5) (wild oat [10]; [26]): 4 (Herbicidal rate of 70% or more and less than 90%)
R: persian speedwell, herbicidal effect (criteria 0-5) (persian speedwell [11]; [26]): 5 (Herbicidal rate of 90% or more (almost completely withered))
M: velvetleaf, herbicidal effect (criteria 0-5) (velvetleaf [12]; [26]): 4 (Herbicidal rate of 70% or more and less than 90%)
N: redroot pigweed, herbicidal effect (criteria 0-5) (redroot pigweed [13]; [26]): 5 (Herbicidal rate of 90% or more (almost completely withered))
herbicidal effect on L: windgrass (windgrass [14]; [27]): 0 (Herbicidal rate of 5% or less (almost no effect))
herbicidal effect on I: wild oat (wild oat [15]; [27]): 0 (Herbicidal rate of 5% or less (almost no effect))
herbicidal effect on O: lambsquarters (lambsquarters [16]; [27]): 3 (Herbicidal rate of 40% or more and less than 70%)
J: blackgrass, herbicidal effect (criteria 0-5) (blackgrass [17]; [26]): 4 (Herbicidal rate of 70% or more and less than 90%)
O: lambsquarters, herbicidal effect (criteria 0-5) (lambsquarters [18]; [26]): 4 (Herbicidal rate of 70% or more and less than 90%)
herbicidal effect on K: Italian ryegrass (Italian ryegrass [19]; [27]): 4 (Herbicidal rate of 70% or more and less than 90%)
Q: false cleavers, herbicidal effect (criteria 0-5) (false cleavers; [26]): 4 (Herbicidal rate of 70% or more and less than 90%)
herbicidal effect on D: Chinese sprangletop (Chinese sprangletop; [27]): 3 (Herbicidal rate of 40% or more and less than 70%)
L: windgrass, herbicidal effect (criteria 0-5) (windgrass [20]; [26]): 1 (Herbicidal rate of 5% or more and less than 20%)
herbicidal effect on J: blackgrass (blackgrass [21]; [27]): 4 (Herbicidal rate of 70% or more and less than 90%)
herbicidal effect on H: barnyard grass (barnyard grass [22]; [27]): 4 (Herbicidal rate of 70% or more and less than 90%)
F: southern crabgrass, herbicidal effect (criteria 0-5) (southern crabgrass [23]; [26]): 4 (Herbicidal rate of 70% or more and less than 90%)
herbicidal effect on P: chickweed (chickweed [24]; [27]): 1 (Herbicidal rate of 5% or more and less than 20%)
H: barnyard grass, herbicidal effect (criteria 0-5) (barnyard grass [25]; [26]): 3 (Herbicidal rate of 40% or more and less than 70%)
